# Data from US20250057959A1, “PHOSPHANE GOLD(I)-N-HETEROCYCLIC CARBENE COMPLEXES FOR TREATING CANCER” (KING FAHD UNIVERSITY OF PETROLEUM AND MINERALS, priority 2023, published 2025).
# Experiments:
# A2780 and A2780cis cells [1] = assay: DNA double-strand breaks, γ-H2AX western blot; format: cell-based, human
# Protocol: Whole-cell lysates were prepared using cold RIPA buffer [150 mM NaCl, 50 mM Tris-HCl (pH 8), 0.1% SDS, 1% Igepal, and 0.5% desoxycholate sodium] containing a protease inhibitor cocktail (Roche Diagnostics S.p.a., Milan, Italy), phosphatase inhibitors 1 mM Na3VO4 and 1 mM NaF (Sigma-Aldrich). Protein concentrations were determined using the BioRad protein assay (Bio-Rad Laboratories, Inc., CA, USA). Equal amounts of proteins were mixed with Laemmli buffer, separated in 4-20% SDS-PAGE (Criterion Precast Gel, BioRad), and blotted onto a nitrocellulose membrane (Amersham, GE Healthcare). Membrane strips were blocked with EveryBilot blocking buffer (Bio-Rad) and incubated at 4° C. overnight with primary antibodies probed with the appropriate antibodies (Table 2) and developed using Immobilon Western chemioluminescent HRP substrate. Images were acquired using a ChemiDoc XRS system (Bio-Rad).
# [2] = system: thioredoxin reductase (TrxR); details: OvCa cells treated 24 hours
# Protocol: To evaluate both the thioredoxin reductase (TrxR) and proteasome activity, cells were treated with complex 6 for 24 hours and then lysed in 50 mM Tris-HCl, pH 7.6, 0.1% Triton X-100, 0.9% NaCl. TrxR (EC 1.8.1.9) was assayed using thioredoxin reductase assay kit (Sigma-Aldrich). Enzyme activity was determined by reading the absorbance at 412 nm using a spectrophotometer (Biomate 3 Thermo Spectronic, Thermo Electonic Corporation, Monza, Italy).
# The enzymatic activity was normalized to the protein concentration and determined using the Bio-Rad protein assay (protein assay dye reagent concentrate, Bio-Rad Laboratories, Segrate, Italy).
# SKOV3 cells = assay: In vitro wound healing assay (cell migration); format: cell-based, human
# Protocol: Cell migration was assessed using the in vitro wound healing assay. Briefly, cells were grown to confluence and then treated with complex 6. After 24 hours of treatment, the medium was removed and cells were washed then scraped with a pipet tip to create a “wound” in the monolayer and washed again. Fresh medium containing 2% FCS was added. Wounds were photographed at times 0, 24, and 48 hours using an inverted microscope (EclipseTS/100, Nikon, Instruments Europe BV Amsterdam, The Netherlands) at magnification 4. Migration was assessed by measuring the cell-free area (in pixels) with ImageJ-NIH (National Institutes of Health) tool software. The cytoskeleton organization was evaluated by culturing SKOV3 cells onto glass coverslips and performing immunofluorescence staining for α-tubulin and F-actin. SKOV3 cells were treated for 24 hours with complex 6, fixed in 4% paraformaldehyde, permeabilized with 0.5% Triton X-100, and incubated overnight with primary antibody (Table 1) at 4° C. Primary antibody was detected using the appropriate secondary antibody together with phallotoxins (Molecular Probes) and TO-PRO-3 (Thermo Fisher Scientific). Images were acquired using an SP8 confocal microscope (Leica).
# A2780 and A2780cis cells [3] = assay: mitROS generation (MitoSOX red), flow cytometry; format: cell-based, human
# Protocol: Results were detected by flow cytometry on a BD FACSCanto II flow cytometer. Data were analyzed using BD FACSDiva version 8.0.1 software (BD Biosciences) unless otherwise indicated. To evaluate apoptosis, tumor cells were treated for 48 hours and then stained for 15 minutes with FITC annexin-V (Thermo Fisher Scientific) and 7AAD (BD Pharmingen). […] For B-cell lymphoma/leukemia-2 (Bcl-2) and Bcl-2 associated x protein (Bax) evaluation, cells were fixed and permeabilized using FIX & PERM cell fixation and cell permeabilization kit (Life Technologies). […] The distribution of cells in different cell cycle phases was quantified using ModFit LT 4.0 software (Verity Software House, Topsham, ME, USA).
# [4] = system: A2780, A2780cis, and SKOV3 cells; assay: Cell cycle analysis (PI, flow cytometry), three OvCa lines; format: cell-based, human; details: 24 hours, 0.15 μM and 0.5 μM
# Protocol: 2.0×10^5/mL A2780 and A2780cis cells were seeded in 6-well plates in complete medium and treated with complex 6 (0.15 μM and 0.5 μM). Results were detected by flow cytometry on a BD FACSCanto II flow cytometer. Data were analyzed using BD FACSDiva version 8.0.1 software (BD Biosciences) unless otherwise indicated. To evaluate apoptosis, tumor cells were treated for 48 hours and then stained for 15 minutes with FITC annexin-V (Thermo Fisher Scientific) and 7AAD (BD Pharmingen). […] For B-cell lymphoma/leukemia-2 (Bcl-2) and Bcl-2 associated x protein (Bax) evaluation, cells were fixed and permeabilized using FIX & PERM cell fixation and cell permeabilization kit (Life Technologies). For ROS generation, cells were stained with 5 μM MitoSOX red mitochondrial superoxide indicator (ThermoFisher Scientific) in a working solution for 30 minutes at 37° C. Cell cycle analysis was performed after 24 hours treatment with complex 6. Cells were harvested, fixed in cold 70% ethanol for 15 minutes, and stained with propidium iodide (PI) solution ([…] PI, 0.1% NP-40, 100 µg/mL PureLink RNase A, 0.1% sodium citrate) for 1 hour. The distribution of cells in different cell cycle phases was quantified using ModFit LT 4.0 software (Verity Software House, Topsham, ME, USA).
# A2780cis = assay: MTT cell viability assay, cisplatin-resistant A2780cis; format: cell-based, human; details: for Fold resistance (A2780cis/A2780): IC50 A2780cis/IC50 A2780
# Excerpt: Human epithelial ovarian cancer A2780 cell line and its cisplatin-resistant clone A2780cis were obtained from Sigma-Aldrich (Milano, Italy). SKOV3 (HTB-77) cells were from the American Type Culture Collection (ATCC). The two cell lines were selected to reflect the two different stages of OvCa and different sensitivity to cisplatin. A2780 cell lines were derived from the ovarian tumor tissue of an untreated patient, while SKOV3 was from the ascitic fluids (after metastasis). […] Cell lines were cultured in RPMI-1640 medium containing 10% fetal bovine serum (FBS) (Gibco, Thermo Fisher Scientific, U.S.A), 1% (v/v) of penicillin (10,000 units/mL)-streptomycin (10 mg/mL), and 1% (v/v) L-glutamine (200 mM) (all from Sigma- Aldrich) at 37° C. in a 5% CO2 fully humidified atmosphere. […] Cisplatin was included as a reference drug. […] Fold resistance was calculated as the ratio of the IC50 of the A2780cis to that of the parental cell line A2780.
compound,measurement,setting,value
"CC(C)c1cccc(C(C)C)c1-n1ccn(-c2c(C(C)C)cccc2C(C)C)[c]1=[Au+][PH](C1CCCCC1)(C1CCCCC1)C1CCCCC1.F[P-](F)(F)(F)(F)F [Complex 6, [Au(IPr)(C18H33P)] PF6]",DNA double-strand breaks (γH2AX),A2780 and A2780cis cells [1],induced DNA-DSBs
same,TrxR enzymatic activity,[2],did not modify its enzymatic activity
same,SKOV3 migration,SKOV3 cells; 24 hours treatment,decreased the SKOV3 migration
same,Remaining uncovered area (wound),"SKOV3 cells; 48 hours after scratch, highest concentration, control about 5%",~70%
same,mitROS generation,A2780 and A2780cis cells [3],increased mitochondrial ROS (mitROS) generation in a dose-dependent manner
same,Effect on cell cycle phases,[4],induced an accumulation in the G0/G1 phase of the cell cycle and a decrease in the S phases
same,IC50,"A2780cis; 72 hours treatment, MTT",120 ± 10 nM
same,Fold resistance (A2780cis/A2780),A2780cis,0.86
same,Fold resistance (A2780cis/A2780),A2780cis; listed as complex 6,0.86
